Usually IC50 stands for the concentration that inhibits the measured activity by half.

IC50 data for 10 molecules are collected here from US20020123513A1, “Use of glycogen phosphorylase inhibitors to inhibit tumor growth” (priority 2000, published 2002).

Test [1] concerns the target T1, human muscle glycogen phosphorylase a (HMGPa) (Homo sapiens, UniProt P11217).
T1 construct: made in house; host or cells: E. coli XL-1 Blue (pKK233-2)
T1 sequence (P11217 1-842): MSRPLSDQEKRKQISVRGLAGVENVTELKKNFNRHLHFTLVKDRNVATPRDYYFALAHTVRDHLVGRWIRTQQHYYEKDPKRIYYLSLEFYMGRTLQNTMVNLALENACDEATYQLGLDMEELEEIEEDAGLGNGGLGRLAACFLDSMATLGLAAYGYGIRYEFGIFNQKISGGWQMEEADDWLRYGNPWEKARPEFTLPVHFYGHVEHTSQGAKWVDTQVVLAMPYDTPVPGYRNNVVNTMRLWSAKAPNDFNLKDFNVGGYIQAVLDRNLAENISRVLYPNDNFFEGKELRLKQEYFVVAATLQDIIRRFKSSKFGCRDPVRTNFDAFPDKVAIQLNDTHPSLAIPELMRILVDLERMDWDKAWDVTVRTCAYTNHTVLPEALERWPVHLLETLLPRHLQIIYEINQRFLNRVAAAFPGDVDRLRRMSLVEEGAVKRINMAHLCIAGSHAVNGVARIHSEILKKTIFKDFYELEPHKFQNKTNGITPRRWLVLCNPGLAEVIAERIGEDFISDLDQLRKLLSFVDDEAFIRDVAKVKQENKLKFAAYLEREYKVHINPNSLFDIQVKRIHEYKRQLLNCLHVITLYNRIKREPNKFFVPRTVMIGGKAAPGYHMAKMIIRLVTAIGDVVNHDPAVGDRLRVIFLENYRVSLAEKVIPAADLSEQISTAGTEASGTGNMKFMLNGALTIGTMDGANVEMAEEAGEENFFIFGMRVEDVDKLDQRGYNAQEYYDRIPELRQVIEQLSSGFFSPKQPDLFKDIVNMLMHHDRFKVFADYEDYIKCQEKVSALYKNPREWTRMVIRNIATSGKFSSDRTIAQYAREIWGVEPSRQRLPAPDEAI
Kind of test: GPa activity assay, reverse direction (release of inorganic phosphate from glucose-1-phosphate), HMGPa. Type of test: biochemical. Conditions: recombinant human muscle GPa, glucose present. The procedure: (§1) In this invention, enzyme activity is determined by measurement of the reverse activity of GPa, i.e., by measuring the release of phosphate due to the incorporation of glucose-1-phosphate into glycogen, where the amount of phosphate released is determined using the spectrophotometric method and experimental conditions described hereinbelow.
(§2) The three different purified glycogen phosphorylase (GP) isoenzymes from a human source, wherein glycogen phosphorylase is in the activated “a” state (referred to as glycogen phosphorylase a, or the abbreviation GPa), and referred to here as human liver glycogen phosphorylase a (HLGPa), human muscle glycogen phosphorylase a (HMGPa), and human brain glycogen phosphorylase a (HBGPa), can be obtained by the following procedures.
(§3) The effect of the compounds of Formula I or IA on the activity of the activated form of glycogen phosphorylase (GPa) can be determined by one of two methods; glycogen phosphorylase a activity is measured in the forward direction by monitoring the production of glucose-1-phosphate from glycogen or by following the reverse reaction, measuring glycogen synthesis from glucose-I-phosphate by the release of inorganic phosphate. All reactions are run in triplicate in 96-well microtiter plates and the change in absorbance due to formation of the reaction product is measured at the wavelength specified below in a MCC/340 MKII Elisa Reader (Lab Systems, Finland), connected to a Titertech Microplate Stacker (ICN Biomedical Co, Huntsville, Ala.).
(§4) Buffer B is at pH 7.2 and contains 50 mM HEPES, 100 mM KCl, 2.5 mM EGTA, 2.5 mM MgCl2 and 0.5 mM dithiothreitol. […] The compounds to be tested are added as 5 μL of solution in 14% DMSO prior to the addition of the enzyme. […] After a 20 minute incubation at room temperature, the absorbance is measured at 620 nm.
(§5) The above assays carried out with a range of concentrations of test compound allows the determination of an IC50 value (as defined hereinabove, see e.g., p. 14) for the in vitro inhibition of GPa enzyme activity by that test compound.

The target of test [2] is T2, human liver glycogen phosphorylase a (HLGPa) (Homo sapiens, UniProt P06737).
T2 construct: made in house; host or cells: E. coli XL-1 Blue (pKK233-2) or Sf9 insect cells (pBlueBac II baculovirus)
T2 sequence (P06737 1-847): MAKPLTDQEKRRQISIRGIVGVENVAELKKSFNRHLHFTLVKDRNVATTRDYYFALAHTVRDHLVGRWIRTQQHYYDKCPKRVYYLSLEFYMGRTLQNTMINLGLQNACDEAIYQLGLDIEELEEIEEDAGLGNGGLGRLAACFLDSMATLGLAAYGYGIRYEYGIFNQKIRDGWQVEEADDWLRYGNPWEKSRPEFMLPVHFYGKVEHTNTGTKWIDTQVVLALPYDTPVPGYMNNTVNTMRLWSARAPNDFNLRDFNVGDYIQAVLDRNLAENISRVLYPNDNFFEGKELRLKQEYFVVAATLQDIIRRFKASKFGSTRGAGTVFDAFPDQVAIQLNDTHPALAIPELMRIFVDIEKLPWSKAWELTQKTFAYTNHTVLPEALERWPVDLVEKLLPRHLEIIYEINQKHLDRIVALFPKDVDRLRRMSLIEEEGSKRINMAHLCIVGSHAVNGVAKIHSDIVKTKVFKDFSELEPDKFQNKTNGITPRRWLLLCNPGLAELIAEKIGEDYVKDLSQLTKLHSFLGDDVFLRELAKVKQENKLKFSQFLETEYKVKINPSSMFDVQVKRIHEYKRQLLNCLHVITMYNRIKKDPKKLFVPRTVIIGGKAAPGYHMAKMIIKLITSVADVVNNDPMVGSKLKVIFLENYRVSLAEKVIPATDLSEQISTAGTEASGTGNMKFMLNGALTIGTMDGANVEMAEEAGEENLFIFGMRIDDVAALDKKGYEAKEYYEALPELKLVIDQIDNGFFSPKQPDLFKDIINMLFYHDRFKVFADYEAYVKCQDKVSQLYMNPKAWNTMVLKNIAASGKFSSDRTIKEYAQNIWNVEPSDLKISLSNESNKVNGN
Kind of test: GPa activity assay, reverse direction (release of inorganic phosphate from glucose-1-phosphate), HLGPa. Type of test: biochemical. The note with it: recombinant human liver GPa, glucose present. The protocol:
as §1, §2, §3, §4, §5

For the molecule `O=C(NCC(=O)N1CCSC1)c1cc2cc(Cl)ccc2[nH]1` [5-chloro-1H-indole-2-carboxylic acid (2-oxo-2-thiazolidin-3-yl-ethyl)-amide], the IC50 in test [1] came to 0.433 µM; in test [2] it was 0.307 µM.

In the case of `O=C(NC(Cc1ccccc1)C(=O)N1CCC(O)C1)c1cc2cc(Cl)ccc2[nH]1` (centres unmarked) [5-chloro-1H-indole-2-carboxylic acid [1-benzyl-2-(3-hydroxypyrrolidin-1-yl)-2-oxo-ethyl]-amide], the IC50 stood at 0.085 µM in test [1] and 0.045 µM in test [2].

On to `O=C(N[C@@H](Cc1ccccc1)C(=O)N1C[C@@H](O)[C@@H](O)C1)c1cc2cc(Cl)ccc2[nH]1` [5-chloro-1H-indole-2-carboxylic acid [(1S)-benzyi-2-(cis-3,4-dihydroxypyrrolidin-1-yl)-2-oxo-ethyl]-amide], for which the values for the IC50 in test [1] and in test [2] were 0.097 µM and 0.03 µM, respectively.

In the case of `O=C(N[C@@H](Cc1ccccc1)C(=O)N1CC(O)C1)c1cc2cc(Cl)ccc2[nH]1` [5-chloro-1H-indole-2-carboxylic acid [(1S)-benzyl-2-(3-hydroxy-azetidin-1-yl)-2-oxo-ethyl]-amide], the IC50 was 0.121 µM in test [1] and 0.065 µM in test [2].

Take `O=C(N[C@@H](Cc1ccccc1)C(=O)N1CC(=NO)C1)c1cc2cc(Cl)ccc2[nH]1` [5-chloro-1H-indole-2-carboxylic acid [(1S)-benzyl-2-(3-hydroxyimino-azetidin-1-yl)-2-oxo-ethyl]-amide]: the results for the half-inhibitory concentration (IC50) in test [1] and in test [2] were 0.084 µM and 0.065 µM, respectively.

`O=C(N[C@@H](Cc1ccccc1)C(=O)N1C[C@H](O)[C@@H](O)C1)c1cc2cc(Cl)ccc2[nH]1` [5-chloro-1H-indole-2-carboxylic acid [(1S)-benzyl-2-((3S,4S)-dihydroxy-pyrrolidin-1-yl)-2-oxo-ethyl-amide]: the IC50 in test [1] is 0.071 µM; in test [2] it was 0.137 µM.

Take `O=C(N[C@@H](Cc1ccccc1)[C@@H](O)C(=O)N1CC(O)C1)c1cc2cc(Cl)ccc2[nH]1` [5-chloro-1H-indole-2-carboxylic acid [(1S)-benzyl-3-((3-hydroxyazetidin-1-yl)-(2R)-hydroxy-3-oxopropyl]-amide]: the IC50 was determined as 0.706 µM in test [1] and 0.236 µM in test [2].

Consider `O=C(N[C@@H](Cc1ccccc1)[C@@H](O)C(=O)N1C[C@@H](O)[C@@H](O)C1)c1cc2cc(Cl)ccc2[nH]1` [5-chloro-1H-indole-2-carboxylic acid [(1S)-benzyl-3-(cis-3,4-dihydroxy-pyrrolidin-1-yl)-(2R)-hydroxy-3-oxopropyl]-amide], for which the IC50 in test [1] worked out at 0.385 µM; in test [2] it was 0.059 µM.

In the case of `O=C(N[C@@H](Cc1ccccc1)[C@@H](O)C(=O)N1CC[C@H](O)C1)c1cc2cc(Cl)ccc2[nH]1` [5-chloro-1H-indole-2-carboxylic acid [(1S)-benzyl-(2R)-hydroxy-3-((3S)-hydroxy-pyrrolidin-1-yl)-3-oxopropyl]-amide], the IC50 in test [1] is 0.096 µM; in test [2] it was 0.054 µM.

Consider `O=C(N[C@@H](Cc1ccccc1)[C@@H](O)C(=O)N1C[C@H](O)[C@@H](O)C1)c1cc2cc(Cl)ccc2[nH]1` [5-chloro-1H-indole-2-carboxylic acid [(1S)-benzyl-(2R)-hydroxy-3-((3S,4S)-dihydroxy-pyrrolidin-1-yl)-3-oxopropyl]-amide], for which the 50% inhibitory concentration (IC50) was found to be 0.09 µM in test [1] and 0.073 µM in test [2].
